{"source": "patent US10463585B2", "about": "“Cosmetic compositions” (The Procter & Gamble Company, priority 2017, dated 2019)", "origin": "cited, not measured here", "tested_on": "tyrosinase expression", "conditions": "in vivo; background statement", "data": [{"substance": "PKEK (Artificial sequence is synthesized)", "values": [{"measurement": "Tyrosinase expression", "value": "reduce tyrosinase expression"}]}]}
